Measured values published in ChEMBL document CHEMBL1201862, “PubChem BioAssay data set” (2004).
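Cultured in 96-well plates, cells were exposed to test compound for 48 hours across five concentrations. GI50 is the concentration that inhibits growth by half.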 Activity calls are given as the source filed them. Cut-off read from the data, not from the text of the source: active = GI50 up to about 1.1 µM and inactive = higher.

What was measured:
Assay in all cases: DTP human tumour cell line panel, 48 h
SNB-75 = system: SNB-75
OVCAR-5 = system: OVCAR-5
TK-10 = system: TK-10
A498 = system: A498
OVCAR-4 = system: OVCAR-4
UACC-62 = system: UACC-62
HL-60 = system: HL-60
CAKI-1 = system: CAKI-1
SF-268 = system: SF-268
NCI/ADR-RES = system: NCI/ADR-RES
CCRF-CEM = system: CCRF-CEM
SNB-19 = system: SNB-19
NCI-H460 = system: NCI-H460
PC-3 = system: PC-3
SK-OV-3 = system: SK-OV-3
COLO 205 = system: COLO 205
BT-549 = system: BT-549
SR = system: SR
HCT-15 = system: HCT-15
HT-29 = system: HT-29

| Compound | GI50 (SNB-75) | GI50 (OVCAR-5) | GI50 (TK-10) | GI50 (A498) | GI50 (OVCAR-4) | GI50 (UACC-62) | GI50 (HL-60) | GI50 (CAKI-1) | GI50 (SF-268) | GI50 (NCI/ADR-RES) | GI50 (CCRF-CEM) | GI50 (SNB-19) | GI50 (NCI-H460) | GI50 (PC-3) | GI50 (SK-OV-3) | GI50 (COLO 205) | GI50 (BT-549) | GI50 (SR) | GI50 (HCT-15) | GI50 (HT-29) |
| --- | --- | --- | --- | --- | --- | --- | --- | --- | --- | --- | --- | --- | --- | --- | --- | --- | --- | --- | --- | --- |
| O=C(O)C1(Nc2ccc(Cl)cc2)CCCC1 | > 100 µM (inactive) | > 100 µM (inactive) | > 100 µM (inactive) | > 100 µM (inactive) | > 100 µM (inactive) | > 100 µM (inactive) | 77.8 µM (inactive) | > 100 µM (inactive) | > 100 µM (inactive) | > 100 µM (inactive) | > 100 µM (inactive) | > 100 µM (inactive) | > 100 µM (inactive) | > 100 µM (inactive) | > 100 µM (inactive) | 33 µM (inactive) | > 100 µM (inactive) | > 100 µM (inactive) | 11.5 µM | > 100 µM (inactive) |
| COc1cc2c3cc1Oc1c(OC)c(OC)cc4c1C(=NCC4)Cc1ccc(cc1)Oc1cc(ccc1O)C[C@H]3N(C)CC2 | 14.1 µM (inactive) | 45.6 µM (inactive) | 20.6 µM (inactive) | 22 µM (inactive) | 16.1 µM (inactive) | 16.7 µM (inactive) | 14 µM (inactive) | 20.6 µM (inactive) | 22.6 µM (inactive) | 13.6 µM (inactive) | 30 µM (inactive) | 23.4 µM (inactive) | 15.6 µM (inactive) | 13.2 µM (inactive) | 48.6 µM (inactive) | 13.5 µM (inactive) | 12.5 µM (inactive) | 5.74 µM (inactive) | 12.2 µM | 10.8 µM (inactive) |
| CC[C@]12C=CCN3CC[C@@]4(c5cc(N=O)c(OC)cc5N(C)[C@H]4[C@@](O)(C(=O)OC)[C@@H]1OC(C)=O)[C@@H]32 | 57.7 µM (inactive) | > 100 µM (inactive) | > 100 µM (inactive) | > 100 µM (inactive) | > 100 µM (inactive) | 51.4 µM (inactive) | 37.8 µM (inactive) | 41 µM (inactive) | > 100 µM (inactive) | > 100 µM (inactive) | 21.6 µM (inactive) | > 100 µM (inactive) | 92.3 µM (inactive) | 40.8 µM (inactive) | > 100 µM (inactive) | 38.2 µM (inactive) | > 100 µM (inactive) | 47.8 µM (inactive) | 86.3 µM | 48.5 µM (inactive) |
| Cc1ccc([N+](=O)[O-])c2c(NCCC[N+](C)(C)[O-])c3ccccc3nc12 | 0.655 µM (active) | 3.41 µM (inactive) | 11.6 µM (inactive) | 1.89 µM (inactive) | 2.02 µM (inactive) | 1.64 µM (inactive) | 4 µM (inactive) | 21 µM (inactive) | 2.47 µM (inactive) | > 95.3 µM (inactive) | 2.07 µM (inactive) | 1.17 µM (inactive) | 0.716 µM (active) | 0.755 µM (active) | 3.86 µM (inactive) | 1.02 µM (active) | 1.5 µM (inactive) | 0.218 µM (active) | 4.99 µM | 1.48 µM (inactive) |
| Cn1c2c3c(F)c(F)ccc3nc-2cc2ccccc21 | 0.805 µM (active) | 1.92 µM (inactive) | 0.828 µM (active) | 0.443 µM (active) | 10.1 µM (inactive) | 3.44 µM (inactive) | 13 µM (inactive) | 2.39 µM (inactive) | 3.24 µM (inactive) | 1.49 µM (inactive) | 1.91 µM (inactive) | 3.79 µM (inactive) | 1.04 µM (active) | 2.85 µM (inactive) | 5.57 µM (inactive) | 2.08 µM (inactive) | 3 µM (inactive) | 2.33 µM (inactive) | 1.49 µM | 1.52 µM (inactive) |
| CS(=O)(=O)OC1CCN(C2(c3cccc(O)c3)CCCCC2)CC1 | > 100 µM (inactive) | > 100 µM (inactive) | > 100 µM (inactive) | > 100 µM (inactive) | 43 µM (inactive) | 88.5 µM (inactive) | 16.5 µM (inactive) | > 100 µM (inactive) | 71.3 µM (inactive) | 48.1 µM (inactive) | 22.6 µM (inactive) | > 100 µM (inactive) | 48.5 µM (inactive) | 33.6 µM (inactive) | 37 µM (inactive) | 32.6 µM (inactive) | 46.2 µM (inactive) | 23.6 µM (inactive) | 79.1 µM | 36.1 µM (inactive) |
| CN(C)CC1CCCc2ccccc2C1=O (stereo not given) | 41.8 µM (inactive) | 17.5 µM (inactive) | 3.83 µM (inactive) | 19.5 µM (inactive) | 0.839 µM (active) | 2.31 µM (inactive) | 2.66 µM (inactive) | 1.93 µM (inactive) | 2.21 µM (inactive) | 3.32 µM (inactive) | 0.107 µM (active) | 13 µM (inactive) | 19.6 µM (inactive) | 1.57 µM (inactive) | 18.3 µM (inactive) | 5.14 µM (inactive) | 5.06 µM (inactive) | 0.271 µM (active) | 1.79 µM | 1.82 µM (inactive) |
| CCN(CC)CCSc1nc2c(c(=N)n1-c1ccccc1)c(=S)n(-c1ccccc1)c(=S)n2-c1ccccc1 | 2.19 µM (inactive) | 14.9 µM (inactive) | 1.73 µM (inactive) | 8.85 µM (inactive) | 3.47 µM (inactive) | 1.71 µM (inactive) | 0.0559 µM (active) | 1.5 µM (inactive) | 1.67 µM (inactive) | 5.36 µM (inactive) | 0.0843 µM (active) | 18.3 µM (inactive) | 1.91 µM (inactive) | 1.8 µM (inactive) | 6.65 µM (inactive) | 1.66 µM (inactive) | 2.23 µM (inactive) | 0.257 µM (active) | 1.77 µM | 1.77 µM (inactive) |
| COc1cc2c(c(O)c1C)C(=O)C(Cl)=CC2=O | 16.4 µM (inactive) | 28.5 µM (inactive) | 7.41 µM (inactive) | 19 µM (inactive) | 11.8 µM (inactive) | 7.23 µM (inactive) | 0.933 µM (active) | 5.45 µM (inactive) | 17.8 µM (inactive) | 22.6 µM (inactive) | 0.918 µM (active) | 42.3 µM (inactive) | 24.9 µM (inactive) | 15.2 µM (inactive) | > 53.1 µM (inactive) | 2.16 µM (inactive) | 8.3 µM (inactive) | 0.662 µM (active) | 11.5 µM | 10.8 µM (inactive) |
| CCC1(O)C=CC(=O)C=C1 | 33.3 µM (inactive) | 33.1 µM (inactive) | 21.1 µM (inactive) | 24.5 µM (inactive) | 23.1 µM (inactive) | 17.2 µM (inactive) | 35 µM (inactive) | 31.4 µM (inactive) | 20.7 µM (inactive) | 24 µM (inactive) | 60.7 µM (inactive) | 18.1 µM (inactive) | 23.4 µM (inactive) | 20.9 µM (inactive) | 38.5 µM (inactive) | 42.4 µM (inactive) | 43.5 µM (inactive) | 36.8 µM (inactive) | 17.9 µM | 31.8 µM (inactive) |
